Consider twelve compounds from publication PMC11050532, “The Inhibition Activity of Natural Methoxyflavonoid from Inula britannica on Soluble Epoxide Hydrolase and NO Production in RAW264.7 Cells” (International Journal of Molecular Sciences, 2024).

Series [1] concerns sEH. Conditions: cited from earlier work; for inhibition mode: sEH.
Series [2] concerns the target T1, sEH (Homo sapiens, UniProt P34913).
T1 construct: purchased Cayman Chemical 10011669
T1 sequence (P34913 1-555): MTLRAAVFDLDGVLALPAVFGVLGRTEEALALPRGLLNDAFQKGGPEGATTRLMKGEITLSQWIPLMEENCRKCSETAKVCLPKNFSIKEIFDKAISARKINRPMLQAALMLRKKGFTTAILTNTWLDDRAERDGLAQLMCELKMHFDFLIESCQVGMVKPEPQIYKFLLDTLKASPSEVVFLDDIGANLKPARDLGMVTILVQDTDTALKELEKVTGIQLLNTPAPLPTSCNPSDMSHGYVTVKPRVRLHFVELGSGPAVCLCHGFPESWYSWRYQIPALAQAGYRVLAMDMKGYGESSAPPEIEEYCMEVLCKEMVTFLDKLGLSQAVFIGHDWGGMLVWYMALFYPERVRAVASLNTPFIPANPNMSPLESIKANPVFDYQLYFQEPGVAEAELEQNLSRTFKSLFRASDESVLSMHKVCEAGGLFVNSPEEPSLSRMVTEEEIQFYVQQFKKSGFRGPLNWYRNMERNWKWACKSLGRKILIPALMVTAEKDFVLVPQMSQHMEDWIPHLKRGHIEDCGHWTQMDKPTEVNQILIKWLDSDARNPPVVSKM
Description: sEH enzyme kinetics (Lineweaver–Burk and Dixon plots). In kind it is biochemical. As to conditions: for Ki: calculated from the Dixon plot; for Binding Mode: substrate 3.1–50 µM, Lineweaver–Burk plot. As to the method:
Determinations of enzyme kinetics yield insights into the interactions between inhibitors and enzymes. In such studies, the changes in the initial velocity (v0) of the enzymatic reaction induced by the inhibitor depending on the substrate concentration are monitored. To investigate the effects of the five flavonoids (1–5) on sEH, a substrate concentration of 3.1–50 µM was used. […] The ki values calculated from the Dixon plot were 43.9, 19.8, 17.5, 63.5, and 68.7 µM, respectively (Figure 2G–K).
In 96-well plates, 20 µL of isolated compounds […] in methanol was mixed with 100 µL of 25 mM Tris–HCl (pH 7.0) buffer containing 0.1% BSA, followed by adding 30 µL of 1.0 µg/mL sEH and then 50 µL of 40 μM PHOME. The reaction product was measured using a fluorescent photometer (excitation filter: 330 nm, emission filter: 465 nm).

For series [3], the target named is T1, sEH. Description: sEH activity assay (PHOME fluorescence). In kind it is biochemical. Conditions: triplicate, six concentrations. As to the method: ^1H (400 MHz) and ^13C (100 MHz) nuclear magnetic resonance (NMR) spectra were obtained using a Bruker DRX-400 spectrometer (Bruker, Billerica, MA, USA) with tetramethylsilane as the internal standard. Thin-layer chromatography (TLC) was performed on pre-coated silica gel 60 F254 (0.25 mm; Merck, Rahway, NJ, USA) and reversed-phase-18 F254s plates (0.25 mm; Merck). Column chromatography was performed using a silica gel (60 A, 70–230, or 230–400 mesh ASTM; Merck, Germany) and reversed-phase silica gel (ODS-A, S-75 μm; YMC, Kyoto, Japan). […] Greiss reagent and lipopolysaccharide (LPS) were purchased from Sigma-Aldrich (St. Louis, MO, USA). Dulbecco’s modified Eagle medium (DMEM) and fetal bovine serum were purchased from Gibco (Grand Island, NY, USA). Penicillin/streptomycin antibiotics came from Invitrogen (Carlsbad, CA, USA).
Inhibitor efficiency (%) was calculated as shown in Equation (1):Inhibitory activity = 100 − [(I4_0 − I0)/(M40 − M0)] × 100(1) where I40 and M40 are the fluorescence of the candidate inhibitor (I) and methanol (M) after 40 min, and I0 and M0 are the fluorescence of I and M at 0 min, respectively.

Series [4] has as its system NO production by poly(I:C)-induced RAW264.7 cells. Description: Nitric oxide assay (Griess method). The series is classed as cell-based. Conditions: for NO production: 10 µM compound, induced control 19.0 ± 1.5 µM, unstimulated ~0.91 µM; for inhibition at 10 µM: Mus musculus, RAW264.7, poly(I:C)-stimulated cells. On the procedure:
The activity of compounds 1–5 with respect to NO production by poly(I:C)-induced RAW264.7 cells was evaluated by measuring the amount of nitrite that accumulated in the culture medium using the Griess method. When tested at a concentration 10 µM, none of the compounds affected the viability of RAW264.7 cells. In unstimulated RAW264.7 cells, NO production was ~ 0.91 µM, whereas in poly(I:C)-induced cells, it was 19.0 ± 1.5 µM. In induced cells simultaneously treated with compounds 1–5 at a concentration of 10 µM, NO production was 12.5 ± 0.1, 9.6 ± 0.2, 4.0 ± 0.2, 7.0 ± 0.3, and 13.9 ± 0.8 µM, respectively (Figure 5).
RAW264.7 macrophages were initially cultured as described above and then pretreated for 2 h with 10 µM of the candidate inhibitor. Then, they were stimulated with 1 µg LPS /mL for 24 h. Then, 100 µL each of supernatant and Griess reagent were added to the plate. The absorbance at 450 nm was measured as described.
(In general: Griess reagent forms a coloured azo dye with nitrite.)

On the set-up of series [5]: method as in PMID 23020295. As to conditions: cited from earlier work.
The test system of series [6] is mice with angiotensin-II-induced hypertension. Further details: method as in PMID 15699457. As to conditions: cited from earlier work.
Another series concerns arthritic rats. Also on record: method as in PMID 27177082. As to conditions: cited from earlier work.
For series [7], the system named is LPS-activated THP-1 cells. Further details: method as in PMID 27177082. As to conditions: cited from earlier work.

As for `O=c1cc(-c2ccc(O)c(O)c2)oc2cc(O[C@@H]3O[C@H](CO)[C@@H](O)[C@H](O)[C@H]3O)cc(O)c12` [luteolin-7-O-glucopyranoside], the inhibition mode result in the series with sEH [1] is “non-competitive”.
As for `C=C(C)[C@@H](O)[C@@H](O)C[C@@H](C)C1=C2CC[C@H]3[C@@]4(C)CCC(=O)C(C)(C)[C@@H]4CC[C@]3(C)[C@@]2(C)CC1` [11-deoxy-25-anhydroalisol E], in the series on sEH [1], the “sEH inhibition (in words)” value is “considerable inhibitory effects on sEH”.
`COc1ccc(-c2oc3cc(OC)c(OC)c(O)c3c(=O)c2O)cc1O` [Compound 1, eupatin]: the Ki on sEH [2] is 43.9 µM. In addition, the “Binding Mode” value was “non-competitive” at sEH [2] and “noncompetitive” on sEH [2] (listed as eupatin). Moreover, at sEH [3], inhibition was half-maximal at 42.6 ± 0.8 µM (IC50). The NO production in series [4] is reported as 12.5 ± 0.1 µM.
Take `O=C(O)CCCCCCCCCCCNC(=O)NC12CC3CC(CC(C3)C1)C2` [AUDA, 12-(3-adamantan-1-yl-ureido) dodecanoic acid]: the metabolism in vivo result in series [5] is on record as “rapid metabolism in vivo”. The blood pressure result in series [6] is reported as “effective for lowering blood pressure”.
`O=c1c(O)c(-c2ccc(O)c(O)c2)oc2cc(O)cc(O)c12` [quercetin]: the “sEH inhibition (in words)” value in the series with sEH [1] was “potent sEH inhibitors”.
Turning to `COc1c(O)cc2oc(-c3ccc(O)cc3)cc(=O)c2c1O` [Compound 2, hispidulin], at sEH [2], the Ki is 19.8 µM and the “Binding Mode” value was “non-competitive”. The “Binding Mode” value at sEH [2] (listed as hispidulin) is recorded as “noncompetitive”. At sEH [3], this compound came in with an IC50 of 22.2 ± 0.3 µM. Moreover, the NO production in series [4] worked out at 9.6 ± 0.2 µM.
Take `COc1cc(-c2oc3cc(O)cc(O)c3c(=O)c2OC2OC(CO)C(O)C(O)C2O)ccc1O` (stereo not shown) [Compound 5, isorhametin-3-O-glucoside]: at sEH [2], the inhibition constant (Ki) is 68.7 µM and the “Binding Mode” value was “non-competitive”. For the same compound, the “Binding Mode” value on sEH [2] (listed as isorhametin-3-O-glucoside) is reported as “noncompetitive”. In addition, inhibition against sEH [3] was half-maximal at 62.8 ± 1.8 µM (IC50). Further, the NO production in series [4] came to 13.9 ± 0.8 µM.
Regarding `O=c1c(O)c(-c2ccc(O)cc2)oc2cc(O)cc(O)c12` [kaempferol], the “sEH inhibition (in words)” value in the series on sEH [1] is “potent sEH inhibitors”.
As for `COc1cc(-c2oc3cc(O[C@@H]4O[C@H](CO)[C@@H](O)[C@H](O)[C@H]4O)cc(O)c3c(=O)c2O)ccc1O` [isorhamnetin-7-O-glucopyranoside], the inhibition mode result in the series on sEH [1] is “non-competitive”.
As to `COc1cc(-c2cc(=O)c3c(O)cc(O)cc3o2)ccc1O` [chrysoeriol], in the series with sEH [1], the inhibition mode entry is “non-competitive”.
In the case of `COc1c(O)cc2oc(-c3ccc(O)c(O)c3)c(O)c(=O)c2c1O` [Compound 3, patuletin], on sEH [2], the Ki is 17.5 µM and the “Binding Mode” value is recorded as “non-competitive”. Further, the “Binding Mode” value at sEH [2] (listed as patuletin) is on record as “noncompetitive”. For the same compound, the “TNF-α and IL-1β levels” value in the series with arthritic rats was “decrease TNF-α and IL-1β levels”. At sEH [3], this compound returned an IC50 of 12.1 ± 0.1 µM. Besides, the “TNF-α and IL-1β levels” value in series [7] is “decrease TNF-α and IL-1β levels”. In series [4], this compound came in with an NO production of 4.0 ± 0.2 µM and an inhibition at 10 µM greater than 50%.
With `COc1c(O)cc2oc(-c3ccc(O)c(O)c3)cc(=O)c2c1O` [Compound 4, nepetin], on sEH [2], the Ki was 63.5 µM and the “Binding Mode” value was “non-competitive”. The “Binding Mode” value on sEH [2] (listed as nepetin) is given as “noncompetitive”. It took 40.9 ± 0.6 µM to reach half-maximal inhibition on sEH [3] (IC50). Also, in series [4], the NO production is 7.0 ± 0.3 µM and the inhibition at 10 µM was greater than 50%.

As usually defined, the Ki is the dissociation constant of the complex between target and ligand, obtained from inhibition or displacement. As a reminder, the IC50 is the midpoint of a concentration-inhibition curve. Usually inhibition stands for the share of the control response that was lost under treatment.
